Values after ≈ are worked out from the molar mass of the structure shown. Like-named read-outs stand apart in the source and are kept apart here.
How the values were obtained:
S. aureus ATCC25923 = assay: S. aureus MIC80 determination, broth microdilution (CLSI) in CAMHB; type: cell-based; conditions: S. aureus ATCC 25923
Method: (§1) S. Aureus MIC80 determinations in S. aureus ATCC25923 or in multidrug-resistant strains AR215, AR217 and AR255. MIC80's were determined by the broth microdilution method recommended by the Clinical and Laboratory Standards Institute (CLSI) in Cation-adjusted Mueller-Hinton broth (CAMHB). (Cao et al., 2018). In the preliminary screening, three compound concentrations were used: 5.8, 20.4, and 71.4 μM; for quantitative MIC80 measurements, a 1.5-fold dilution series of the compounds was prepared in CAMHB. Overnight bacterial culture was added to the diluted compounds in a 96-well plate after adjusting the bacterial concentration to achieve a 5×10^5 CFU/mL final concentration. After 16-24 h incubation at 35±2° C., the plates were read at 600 nm in a microplate reader. The MIC80 was defined as the concentration of an antibacterial agent that inhibited bacteria growth ≥80% compared to vehicle-treated control cultures. All values were determined at least twice independently, and the average number is reported.

[1] = test system: S. aureus AR217 (MRSA, multidrug-resistant strain); assay: as above; type: cell-based; conditions: Table 2
Method: as §1
(§2) AR215, AR217, and AR222 were obtained from the Centers for Disease Control and Prevention (CDC). AR215 and AR217 are cefoxitin-screen positive (resistant to cefoxitin) and resistant to oxacillin, which are MRSA strains. AR215 is also resistant to clindamycin, erythromycin, levofloxacin, and penicillin. AR217 is also resistant to levofloxacin, penicillin, and Trimethoprim-sulfamethoxazole. AR222 is only resistant to penicillin.

[2] = test system: S. aureus AR215 (MRSA, multidrug-resistant strain); assay: as above; type: cell-based; conditions: Table 2
Method: as §1, §2

S. aureus AR222 [3] = assay: as above; type: cell-based; conditions: Table 2
Method: as §1, §2

S. aureus AR222 [4] = test system: S. aureus AR222; parameters: key to Antibiotic susceptibility (R/S/I): R: resistance; S: sensitive; I: intermediate; conditions: Table 2; S. aureus AR222 (CDC strain); cited from earlier work
S. aureus AR217 = test system: S. aureus AR217; parameters: key to Antibiotic susceptibility (R/S/I): R: resistance; S: sensitive; I: intermediate; conditions: Table 2; S. aureus AR217 (CDC strain); cited from earlier work
S. aureus ATCC 25923 = test system: S. aureus ATCC 25923; parameters: key: R: resistance; S: sensitive; I: intermediate; conditions: Table 2; cited from earlier work
S. aureus AR215 = test system: S. aureus AR215; parameters: key to Antibiotic susceptibility (R/S/I): R: resistance; S: sensitive; I: intermediate; conditions: Table 2; S. aureus AR215 (CDC strain); cited from earlier work
[5] = Staphylococcus aureus, ATCC25923, Table 1, growth inhibition ≥80% vs vehicle, 16-24 h, read-out: ATCC 25923 MIC80
[6] = Staphylococcus aureus, ATCC25923, Table 2, read-out: MIC80

Compound | MIC80 (S. aureus ATCC25923; [5]) | MIC80 (S. aureus ATCC25923; [6]) | MIC80 ([1]; Staphylococcus aureus, MRSA) | MIC80 ([2]; Staphylococcus aureus, MRSA) | MIC80 (S. aureus AR222 [3]; Staphylococcus aureus) | Antibiotic susceptibility (R/S/I) (S. aureus AR222 [4]) | Antibiotic susceptibility (R/S/I) (S. aureus AR217) | Antibiotic susceptibility (R/S/I) (S. aureus ATCC 25923) | Antibiotic susceptibility (R/S/I) (S. aureus AR215) | other results
Cc1ccc(C(=O)N(CCCn2ccnc2)c2nc3c(C)cc(Cl)cc3s2)o1 [Example 4, N-(3-(1H-imidazol-1-yl)propyl)-N-(6-chloro-4-methylbenzo[d]thiazol-2-yl)-5-methylfuran-2-carboxamide] | 2.6 µM (≈ 1.08 µg/mL) | 0.78 µM (≈ 0.324 µg/mL) | 5.9 µM (≈ 2.45 µg/mL) | 8.9 µM (≈ 3.69 µg/mL) | 0.78 µM (≈ 0.324 µg/mL) | – | – | – | – | –
Cc1ccoc1C(=O)N(CCCn1ccnc1)c1nc2c(C)cc(Cl)cc2s1 [Example 15, N-(3-(1H-imidazol-1-yl)propyl)-N-(6-chloro-4-methylbenzo[d]thiazol-2-yl)-3-methylfuran-2-carboxamide] | < 1.7 µM | 1.8 µM (≈ 0.747 µg/mL) | 4 µM (≈ 1.66 µg/mL) | 13.3 µM (≈ 5.52 µg/mL) | 2.6 µM (≈ 1.08 µg/mL) | – | – | – | – | –
CO[C@H]1/C=C/O[C@@]2(C)Oc3c(C)c(O)c4c(O)c(c(/C=N/N5CCN(C)CC5)c(O)c4c3C2=O)NC(=O)/C(C)=C\C=C\[C@H](C)[C@H](O)[C@@H](C)[C@@H](O)[C@@H](C)[C@H](OC(C)=O)[C@@H]1C [RIF, Rifampin] | – | – | – | – | – | I | S | S | S | –
CN[C@H](CC(C)C)C(=O)N[C@H]1C(=O)N[C@@H](CC(N)=O)C(=O)N[C@H]2C(=O)N[C@H]3C(=O)N[C@H](C(=O)N[C@H](C(=O)O)c4cc(O)cc(O)c4-c4cc3ccc4O)[C@H](O)c3ccc(c(Cl)c3)Oc3cc2cc(c3O[C@@H]2O[C@H](CO)[C@@H](O)[C@H](O)[C@H]2O[C@H]2C[C@](C)(N)[C@H](O)[C@H](C)O2)Oc2ccc(cc2Cl)[C@H]1O [VAN, Vancomycin] | – | – | – | – | – | I | I | S | I | –
Gentamicin | – | – | – | – | – | S | S | S | S | –
clorofloxacin [reference compound] | – | – | – | – | – | – | – | – | – | MIC80 (S. aureus ATCC25923; Table 2, read-out: MIC80): 40.52 µM; MIC80 [1]: .30 µM; MIC80 [2]: .66 µM; MIC80 (S. aureus AR222 [3]): 0.52 µM
